This passage reports TGI and GI50 results from PubChem BioAssay (NCI).

Among the test systems are A549 NSCLC; CCRF-CEM leukemia; HT29 colon; MCF7 breast; SF-295 CNS; SK-MEL-28 melanoma; SK-MEL-5 melanoma; SW-620 colon; UACC-257 melanoma; UACC-62 melanoma.
Holding throughout (experiment): DTP human tumour cell line panel, 48 h

“And” between values parts separate entries of the source, which are not always exact repeats. Identical values can stand only once.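 Values below derive from 48-hour exposures of cells grown in 96-well plates, with endpoints linearly interpolated between the two concentrations bracketing the appropriate inhibition level. GI50 = concentration required for 50% inhibition of growth. TGI denotes the concentration required for complete inhibition of growth.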 A value given as a limit tells only on which side of the number the result lay.

Turning to `Fc1c(F)c(C(F)(F)F)c(F)c(F)c1N/N=C\c1c[nH]c2ccccc12`, the total growth inhibition concentration (TGI) in the test on A549 NSCLC was 12 µM; in the test with CCRF-CEM leukemia, 4.73 µM; with HT29 colon, 6.46 µM; in the test with MCF7 breast, 10.3 µM; in the test with SF-295 CNS, 6.82 µM; with SK-MEL-28 melanoma, 20 µM. In addition, the TGI with SK-MEL-5 melanoma amounted to 4.04 µM; in the test with SW-620 colon, 12.5 µM; in the test on UACC-257 melanoma it was 14.3 µM; with UACC-62 melanoma it was 10.5 µM.
For `C=C1C(=O)C([Si](C)(C)C)=C2C=C(C)C3(CC3)C12C` (stereo not drawn), the TGI is above 100 µM in the test with A549 NSCLC; 11 µM in the test on CCRF-CEM leukemia; 48.7 µM with HT29 colon; 70.4 µM in the test with MCF7 breast; above 100 µM with SF-295 CNS; above 100 µM with SK-MEL-28 melanoma. Also, the total growth inhibition concentration (TGI) in the test with SK-MEL-5 melanoma, with SW-620 colon, in the test with UACC-257 melanoma and with UACC-62 melanoma was above 100 µM in each case.
As to `Cc1c2ccncc2cc2c1sc1ccncc12`, the TGI is 5.3 µM with A549 NSCLC; 5.32 µM in the test on CCRF-CEM leukemia; 14.5 µM with HT29 colon; 3.56 µM in the test with MCF7 breast; 9.59 µM with SF-295 CNS; 14.1 µM in the test with SK-MEL-28 melanoma. Further, the total growth inhibition concentration (TGI) in the test on SK-MEL-5 melanoma was found to be 5.78 µM; with SW-620 colon, 16.7 µM; with UACC-257 melanoma, 11 µM; in the test on UACC-62 melanoma, 8.41 µM.
In the case of `Cc1ccc(NCC2CC/C(=C\c3ccc(Cl)cc3)C2=O)cc1` (stereo not drawn), the TGI in the test on A549 NSCLC was above 100 µM; with CCRF-CEM leukemia, 19.3 µM; in the test on HT29 colon, 49.1 µM; in the test on MCF7 breast, 26.7 µM; with SF-295 CNS it was above 100 µM; with SK-MEL-28 melanoma, 36.7 µM. For the same molecule, the total growth inhibition concentration (TGI) in the test with SK-MEL-5 melanoma turned out to be 20.4 µM; in the test on SW-620 colon, 16.5 µM; with UACC-257 melanoma it was 39.2 µM; in the test with UACC-62 melanoma it was 58.6 µM.
Consider `CC1(C)C(=O)N(O)C(C)(C)N1O`, for which the TGI in the test with A549 NSCLC, in the test with CCRF-CEM leukemia, in the test with HT29 colon, with MCF7 breast, in the test with SF-295 CNS and in the test with SK-MEL-28 melanoma was above 10 µM in each case. Further, the concentration for total growth inhibition (TGI) in the test on SK-MEL-5 melanoma, in the test with SW-620 colon, in the test with UACC-257 melanoma and in the test with UACC-62 melanoma was above 10 µM each time.
For `O=c1n(/N=C/c2ccccc2)c(=O)n2n1C1C=CC2CC1`, the concentration for total growth inhibition (TGI) with A549 NSCLC, with CCRF-CEM leukemia, in the test with HT29 colon, in the test with MCF7 breast, in the test with SF-295 CNS and in the test with SK-MEL-28 melanoma was above 100 µM in each case. Moreover, the TGI with SK-MEL-5 melanoma, with SW-620 colon, in the test with UACC-257 melanoma and with UACC-62 melanoma was above 100 µM each time.
`COc1cc2cc(C(=O)N3CC(CCl)c4c3cc(NC(=O)C(C)(C)c3ccccc3[N+](=O)[O-])c3ccccc43)[nH]c2c(OC)c1OC` (stereo not drawn): the TGI is above 600 µM with A549 NSCLC; 50 µM and 203 µM in the test with HT29 colon; 7.81 µM and 35.1 µM with SK-MEL-5 melanoma; 14.1 µM and 75.6 µM with UACC-257 melanoma. Moreover, the GI50 is 51.2 µM in the test with CCRF-CEM leukemia; 14.5 µM with HT29 colon; 16.1 µM in the test on MCF7 breast; 19.2 µM with SF-295 CNS; 86.7 µM with SK-MEL-28 melanoma; 11.3 µM in the test with SK-MEL-5 melanoma. The GI50 in the test with SW-620 colon is 16.9 µM; in the test with UACC-257 melanoma, 18.9 µM; in the test on UACC-62 melanoma it was 25.4 µM.
Consider `Clc1cccc(Cl)c1C=NC12CC3CC(CC(C3)C1)C2`, for which the TGI with A549 NSCLC, with CCRF-CEM leukemia, in the test with HT29 colon, in the test with MCF7 breast, in the test on SF-295 CNS and with SK-MEL-28 melanoma was above 10 µM each time. The TGI in the test with SK-MEL-5 melanoma, in the test with SW-620 colon, in the test with UACC-257 melanoma and in the test on UACC-62 melanoma was above 10 µM each time.
Turning to `O=C(O)c1c[nH]c2c(Sc3ccccc3)nccc2c1=O`, the concentration for total growth inhibition (TGI) in the test on A549 NSCLC, in the test with CCRF-CEM leukemia, with HT29 colon, with MCF7 breast, with SF-295 CNS and in the test with SK-MEL-28 melanoma was above 100 µM throughout. Further, the total growth inhibition concentration (TGI) in the test on SK-MEL-5 melanoma, with SW-620 colon, with UACC-257 melanoma and in the test on UACC-62 melanoma was above 100 µM throughout.
Consider `c1csc(-c2cscc2-c2ccsc2)c1`, for which the TGI in the test on A549 NSCLC is above 100 µM; in the test on CCRF-CEM leukemia, above 100 µM; in the test on HT29 colon, above 100 µM; in the test on MCF7 breast it was above 83.5 µM; in the test with SF-295 CNS, above 100 µM; with SK-MEL-28 melanoma, above 100 µM. Further, the TGI in the test on SK-MEL-5 melanoma, in the test with SW-620 colon, in the test on UACC-257 melanoma and in the test with UACC-62 melanoma was above 100 µM throughout.
In the case of `Cc1nc2sc(CCl)nn2c(=O)c1Cl`, the TGI came out at 29.6 µM with A549 NSCLC; 24.9 µM in the test with CCRF-CEM leukemia; 26.2 µM in the test on HT29 colon; 18.1 µM with MCF7 breast; 31.1 µM in the test on SF-295 CNS; 27.3 µM in the test with SK-MEL-28 melanoma. Further, the concentration for total growth inhibition (TGI) with SK-MEL-5 melanoma was 18.7 µM; with SW-620 colon, 25.6 µM; in the test with UACC-257 melanoma, 29.7 µM; with UACC-62 melanoma, 36.2 µM.
As to `O=c1[nH]c(=O)n(C2OC(CO)C(O)C(F)C2O)cc1F` (stereo not drawn), the total growth inhibition concentration (TGI) with A549 NSCLC, in the test with CCRF-CEM leukemia, in the test with HT29 colon, with MCF7 breast, in the test with SF-295 CNS and in the test with SK-MEL-28 melanoma was above 100 µM in each case. The TGI with SK-MEL-5 melanoma, in the test on SW-620 colon, in the test on UACC-257 melanoma and in the test on UACC-62 melanoma was above 100 µM in each case.
`COc1cc2c(/C=C3/C(=O)Nc4ccc(Cl)cc43)c(Cl)n(Cc3ccccc3)c2cc1C`: the TGI in the test with A549 NSCLC was above 100 µM; with CCRF-CEM leukemia, 6.78 µM; in the test on HT29 colon, above 100 µM; in the test with MCF7 breast it was above 100 µM; in the test with SF-295 CNS it was 7.19 µM; with SK-MEL-28 melanoma, 9.46 µM. The TGI was 13.7 µM with SK-MEL-5 melanoma, above 100 µM with SW-620 colon, above 100 µM in the test on UACC-257 melanoma and 10.3 µM with UACC-62 melanoma.
For the molecule `CCOC(=O)/C(N=Nc1ccc(-n2c(C)nc3ccccc3c2=O)cc1)=C(/C)O`, the TGI in the test with A549 NSCLC was above 100 µM; in the test on CCRF-CEM leukemia, above 100 µM; with HT29 colon, above 100 µM; in the test with MCF7 breast, above 100 µM; with SF-295 CNS, above 100 µM; with SK-MEL-28 melanoma, 71.6 µM. In addition, the concentration for total growth inhibition (TGI) in the test on SK-MEL-5 melanoma is 16 µM; in the test with SW-620 colon it was above 100 µM; in the test on UACC-257 melanoma, above 100 µM; in the test on UACC-62 melanoma it was above 100 µM.
Take `CCOC(=O)CCC(NC(=O)Cc1ccc(Nc2nc3ccccc3nc2-c2ccccc2)cc1)C(=O)OCC` (stereo not drawn): the TGI with A549 NSCLC was above 100 µM; with CCRF-CEM leukemia, above 100 µM; with HT29 colon, above 100 µM; with MCF7 breast, above 100 µM; with SF-295 CNS it was 48.4 µM; in the test with SK-MEL-28 melanoma, above 100 µM. Moreover, the TGI with SK-MEL-5 melanoma, with SW-620 colon, in the test on UACC-257 melanoma and in the test with UACC-62 melanoma was above 100 µM in each case.
As for `O=C1NC(N2CCOCC2)=N/C1=C\c1cccs1`, the total growth inhibition concentration (TGI) with A549 NSCLC, in the test with CCRF-CEM leukemia, with HT29 colon, in the test on MCF7 breast, in the test on SF-295 CNS and in the test with SK-MEL-28 melanoma was above 100 µM each time. The TGI in the test with SK-MEL-5 melanoma, with SW-620 colon, in the test with UACC-257 melanoma and in the test with UACC-62 melanoma was above 100 µM throughout.
`Fc1cc(C2=C[C@H](c3ccc(Cl)cc3)NC(=S)N2)c(Cl)cc1Cl`: the concentration for total growth inhibition (TGI) in the test with A549 NSCLC, with CCRF-CEM leukemia, with HT29 colon, with MCF7 breast, in the test on SF-295 CNS and in the test with SK-MEL-28 melanoma was above 100 µM in each case. The total growth inhibition concentration (TGI) with SK-MEL-5 melanoma is 36.1 µM; with SW-620 colon, above 100 µM; in the test on UACC-257 melanoma, above 100 µM; in the test on UACC-62 melanoma, above 100 µM.
`CCOC(=O)/C(O)=C(/C=N\C(=S)Nc1ccccc1Cl)C(=O)OCC`: the TGI in the test with A549 NSCLC, with CCRF-CEM leukemia, with HT29 colon, in the test on MCF7 breast, in the test with SF-295 CNS and in the test on SK-MEL-28 melanoma was above 100 µM each time. Also, the TGI with SK-MEL-5 melanoma, with SW-620 colon, in the test on UACC-257 melanoma and in the test with UACC-62 melanoma was above 100 µM in each case.
Regarding `COc1ccc(/C=C(\Cl)c2ccc(OC)c(OC)c2)cc1OC`, the concentration for total growth inhibition (TGI) in the test with A549 NSCLC, in the test with CCRF-CEM leukemia, in the test with HT29 colon, in the test with MCF7 breast, with SF-295 CNS and in the test with SK-MEL-28 melanoma was above 100 µM throughout. Also, the total growth inhibition concentration (TGI) in the test with SK-MEL-5 melanoma, in the test on SW-620 colon, in the test on UACC-257 melanoma and in the test on UACC-62 melanoma was above 100 µM in each case.
With `O=C(O)C1CC2C3CCC2C1C3=O` (stereo not drawn), the TGI in the test on A549 NSCLC, in the test on CCRF-CEM leukemia, in the test with HT29 colon, with MCF7 breast, in the test with SF-295 CNS and in the test on SK-MEL-28 melanoma was above 100 µM throughout. The total growth inhibition concentration (TGI) in the test with SK-MEL-5 melanoma, with SW-620 colon, in the test on UACC-257 melanoma and in the test on UACC-62 melanoma was above 100 µM each time.
On to `COc1ccc(C2c3cc4c(cc3C(O)C3CCC(=O)N23)OCO4)cc1` (stereo not drawn), for which the concentration for total growth inhibition (TGI) in the test with A549 NSCLC, in the test on CCRF-CEM leukemia, with HT29 colon, in the test with MCF7 breast, with SF-295 CNS and in the test with SK-MEL-28 melanoma was above 100 µM in each case. In addition, the TGI with SK-MEL-5 melanoma, with SW-620 colon, with UACC-257 melanoma and in the test on UACC-62 melanoma was above 100 µM each time.
For `CN(C)c1ccc(-c2c(C#N)c(N)[nH]c(=S)c2C#N)cc1`, the TGI with A549 NSCLC, in the test on CCRF-CEM leukemia, in the test on HT29 colon, in the test with MCF7 breast, with SF-295 CNS and in the test with SK-MEL-28 melanoma was above 100 µM in each case. Moreover, the TGI in the test with SK-MEL-5 melanoma, with SW-620 colon, in the test with UACC-257 melanoma and with UACC-62 melanoma was above 100 µM each time.

One may read the TGI as the concentration at which net growth stops. Low values mean greater sensitivity of the cells, high ones lower sensitivity of the cells. Usually GI50 stands for the concentration that inhibits growth by half.
